What was measured:
[1] = test system: SARS-CoV-2; test: Antiviral activity against SARS-CoV-2 Omicron XBB infected in human A549-hACE2-TMPRSS2 cells assessed as fold reduction in viral replication pre-incubated with compound followed by viral infection measured after 72 hrs by ELISA assay relative to SARS-CoV-2 WA1; format: functional, Severe acute respiratory syndrome coronavirus 2
[2] = test system: SARS-CoV-2; test: Antiviral activity against SARS-CoV-2 Delta (B.1.617.2) infected in human A549-hACE2-TMPRSS2 cells assessed as fold reduction in viral replication pre-incubated with compound followed by viral infection measured after 48 hrs by ELISA assay relative to SARS-CoV-2 WA1; format: functional, Severe acute respiratory syndrome coronavirus 2
[3] = test system: SARS-CoV-2; test: Antiviral activity against SARS-CoV-2 Omicron BA.1 infected in human A549-hACE2-TMPRSS2 cells assessed as reduction in viral replication pre-incubated with compound followed by viral infection measured after 72 hrs by ELISA assay; format: functional, organism-based; conditions: Severe acute respiratory syndrome coronavirus 2, Omicron BA.1, A549-hACE2-TMPRSS2
[4] = test system: SARS-CoV-2; test: Antiviral activity against SARS-CoV-2 Omicron BA.4 infected in human A549-hACE2-TMPRSS2 cells assessed as reduction in viral replication pre-incubated with compound followed by viral infection measured after 72 hrs by ELISA assay; format: functional, organism-based; conditions: Severe acute respiratory syndrome coronavirus 2, Omicron BA.4, A549-hACE2-TMPRSS2
[5] = test system: SARS-CoV-2; test: Antiviral activity against SARS-CoV-2 Omicron BF.5 infected in human A549-hACE2-TMPRSS2 cells assessed as reduction in viral replication pre-incubated with compound followed by viral infection measured after 72 hrs by ELISA assay; format: functional, organism-based; conditions: Severe acute respiratory syndrome coronavirus 2, Omicron BF.5, A549-hACE2-TMPRSS2
[6] = test system: SARS-CoV-2; test: Antiviral activity against SARS-CoV-2 Omicron BA.1 infected in human A549-hACE2-TMPRSS2 cells assessed as fold reduction in viral replication pre-incubated with compound followed by viral infection measured after 72 hrs by ELISA assay relative to SARS-CoV-2 WA1; format: functional, Severe acute respiratory syndrome coronavirus 2
[7] = Cytotoxicity against human A549-ACE2 cells assessed as reduction in cell growth measured after 48 hrs by CellTiter-Glo assay; format: toxicity, cell-based; conditions: for CC50 at 48 h: A549-ACE2 cells
[8] = test system: SARS-CoV-2; test: Antiviral activity against SARS-CoV-2 Omicron BA.2.12.1 infected in human A549-hACE2-TMPRSS2 cells assessed as reduction in viral replication pre-incubated with compound followed by viral infection measured after 72 hrs by ELISA assay; format: functional, organism-based; conditions: Severe acute respiratory syndrome coronavirus 2, Omicron BA.2.12.1, A549-hACE2-TMPRSS2
[9] = test system: SARS-CoV-2; test: Antiviral activity against SARS-CoV-2 Omicron BQ1.1 infected in human A549-hACE2-TMPRSS2 cells assessed as fold reduction in viral replication pre-incubated with compound followed by viral infection measured after 72 hrs by ELISA assay relative to SARS-CoV-2 WA1; format: functional, Severe acute respiratory syndrome coronavirus 2
[10] = test system: SARS-CoV-2; test: Antiviral activity against SARS-CoV-2 Omicron XBB infected in human A549-hACE2-TMPRSS2 cells assessed as reduction in viral replication pre-incubated with compound followed by viral infection measured after 72 hrs by ELISA assay; format: functional, organism-based; conditions: Severe acute respiratory syndrome coronavirus 2, Omicron XBB
[11] = test system: SARS-CoV-2; test: Antiviral activity against Nluc-fused SARS-CoV-2 infected in human A549-ACE2 cells assessed as reduction in cell viability incubated for 2 days by Nano-Glo reagent based analysis; format: functional, organism-based; conditions: Severe acute respiratory syndrome coronavirus 2, A549-ACE2, 48 h
[12] = test system: SARS-CoV-2; test: Antiviral activity against SARS-CoV-2 Omicron BA.2.75 infected in human A549-hACE2-TMPRSS2 cells assessed as reduction in viral replication pre-incubated with compound followed by viral infection measured after 72 hrs by ELISA assay; format: functional, organism-based; conditions: Severe acute respiratory syndrome coronavirus 2, Omicron BA.2.75, A549-hACE2-TMPRSS2
[13] = test system: SARS-CoV-2; test: Antiviral activity against […]-fused SARS-CoV-2 infected in human NHBE-T cells assessed as reduction in cell viability incubated for 1 day by Nano-Glo reagent based analysis; format: functional, organism-based; conditions: Severe acute respiratory syndrome coronavirus 2, NHBE-T, 24 h
[14] = test system: SARS-CoV-2; test: Antiviral activity against SARS-CoV-2 Omicron BA.2 infected in human A549-hACE2-TMPRSS2 cells assessed as reduction in viral replication pre-incubated with compound followed by viral infection measured after 72 hrs by ELISA assay; format: functional, organism-based; conditions: Severe acute respiratory syndrome coronavirus 2, Omicron BA.2, A549-hACE2-TMPRSS2
[15] = Cytotoxicity against human MT4 cells assessed as reduction in cell growth measured after 5 days by CellTiter-Glo assay; format: toxicity, cell-based; conditions: MT4 cells, time 5 day
[16] = test system: SARS-CoV-2; test: Antiviral activity against SARS-CoV-2 Omicron BQ1.1 infected in human A549-hACE2-TMPRSS2 cells assessed as reduction in viral replication pre-incubated with compound followed by viral infection measured after 72 hrs by ELISA assay; format: functional, organism-based; conditions: Severe acute respiratory syndrome coronavirus 2, Omicron BQ1.1, A549-hACE2-TMPRSS2
[17] = test system: SARS-CoV-2; test: Antiviral activity against SARS-CoV-2 Omicron BA.2.75 infected in human A549-hACE2-TMPRSS2 cells assessed as fold reduction in viral replication pre-incubated with compound followed by viral infection measured after 72 hrs by ELISA assay relative to SARS-CoV-2 WA1; format: functional, Severe acute respiratory syndrome coronavirus 2
[18] = test system: SARS-CoV-2; test: Antiviral activity against SARS-CoV-2 Omicron BA.5 infected in human A549-hACE2-TMPRSS2 cells assessed as reduction in viral replication pre-incubated with compound followed by viral infection measured after 72 hrs by ELISA assay; format: functional, organism-based; conditions: Severe acute respiratory syndrome coronavirus 2, Omicron BA.5, A549-hACE2-TMPRSS2
[19] = test system: SARS-CoV-2; test: Antiviral activity against SARS-CoV-2 WA1 infected in human A549-hACE2-TMPRSS2 cells assessed as reduction in viral replication pre-incubated with compound followed by viral infection measured after 72 hrs by ELISA assay; format: functional, organism-based; conditions: Severe acute respiratory syndrome coronavirus 2, WA1, A549-hACE2-TMPRSS2
[20] = test system: SARS-CoV-2; test: Antiviral activity against SARS-CoV-2 Delta (B.1.617.2) infected in human A549-hACE2-TMPRSS2 cells assessed as reduction in viral replication pre-incubated with compound followed by viral infection measured after 48 hrs by ELISA assay; format: functional, organism-based; conditions: Severe acute respiratory syndrome coronavirus 2, Delta (B.1.617.2)
[21] = test system: SARS-CoV-2; test: Antiviral activity against SARS-CoV-2 Omicron BA.4.6 infected in human A549-hACE2-TMPRSS2 cells assessed as fold reduction in viral replication pre-incubated with compound followed by viral infection measured after 72 hrs by ELISA assay relative to SARS-CoV-2 WA1; format: functional, Severe acute respiratory syndrome coronavirus 2
[22] = test system: SARS-CoV-2; test: Antiviral activity against SARS-CoV-2 Omicron BA.4.6 infected in human A549-hACE2-TMPRSS2 cells assessed as reduction in viral replication pre-incubated with compound followed by viral infection measured after 72 hrs by ELISA assay; format: functional, organism-based; conditions: Severe acute respiratory syndrome coronavirus 2, Omicron BA.4.6, A549-hACE2-TMPRSS2
[23] = Drug metabolism in human A549-ACE2 cells assessed as Nucleotide triphosphate metabolite formation at 10 uM measured after 48 hrs by LC-MS analysis; format: ADME, cell-based; conditions: a549-ace2, 48 h
[24] = Thermodynamic aqueous solubility at pH 2 measured at 72 hrs by UPLC analysis; format: physicochemical; conditions: aqueous solution, read-out: Therm_solubility

In the case of `CCC(CC)COC(=O)[C@H](C)N[P@](=O)(OC[C@H]1O[C@@](C#N)(c2ccc3c(N)ncnn23)[C@H](O)[C@@H]1O)Oc1ccccc1`, the “fold change (FC)” value [1] is reported as 1.07, the “fold change (FC)” value [2] is reported as 0.59 and the EC50 [3] is reported as 40 nM. The EC50 [4] was 20 nM, the EC50 [5] was 130 nM and the “fold change (FC)” value [6] was 0.45. The CC50 ([7]; a549-ace2, 48 h) was 22900 nM, the EC50 [8] was 30 nM and the “fold change (FC)” value [9] was 1.12. The EC50 [10] was 90 nM, the EC50 [11] was 60 nM and the EC50 [12] was 30 nM. For the same compound, the EC50 [13] was 40 nM, the EC50 [14] was 20 nM and the CC50 at 120 h [15] was 1700 nM. The EC50 [16] was 90 nM, the “fold change (FC)” value [17] was 0.3 and the EC50 [18] was 110 nM. For the same compound, the EC50 [19] was 80 nM, the EC50 [20] was 70 nM and the “fold change (FC)” value [21] was 0.64. It also gave an EC50 [22] of 90 nM.

In the case of `N#C[C@@]1(c2ccc3c(N)ncnn23)O[C@H](CO)[C@@H](O)[C@H]1O` [GS-441524], the EC50 [3] is reported as 2660 nM, the Drug metabolism [23] is reported as “Metabolite_Detected” and the EC50 [4] is reported as 1630 nM. For the same compound, the EC50 [5] was 7780 nM, the CC50 at 48 h [7] was > 50000 nM and the solubility thermodynamic at 72 h [24] was ≤ 1 mg/mL. The EC50 [8] was 1790 nM, the “fold change (FC)” value [9] was 1.33 and the EC50 [10] was 6300 nM. For the same compound, the EC50 [11] was 2490 nM, the EC50 [12] was 2580 nM and the EC50 [13] was 3250 nM. For the same compound, the EC50 [14] was 1330 nM, the CC50 at 120 h [15] was 69000 nM and the EC50 [16] was 8770 nM. The EC50 [18] was 4800 nM, the EC50 [19] was 4450 nM and the EC50 [20] was 3260 nM. The EC50 [22] was 5400 nM.

For `CC(C)C(=O)OC[C@H]1O[C@@](C#N)(c2ccc3c(N)ncnn23)[C@H](O)[C@@H]1O` [OBELDESIVIR], the “fold change (FC)” value [1] was 1.1, the “fold change (FC)” value [2] was 0.72 and the EC50 [3] was 650 nM. The Drug metabolism [23] was “Metabolite_Detected”, the EC50 [4] was 400 nM and the EC50 [5] was 3130 nM. The “fold change (FC)” value [6] was 0.32, the CC50 at 48 h [7] was > 50000 nM and the solubility thermodynamic at 72 h [24] was ≥ 40 mg/mL. For the same compound, the EC50 [8] was 440 nM, the “fold change (FC)” value [9] was 1.33 and the EC50 [10] was 2030 nM. For the same compound, the EC50 [11] was 1900 nM, the EC50 [12] was 690 nM and the EC50 [13] was 430 nM. For the same compound, the EC50 [14] was 710 nM, the CC50 at 120 h [15] was > 50000 nM and the EC50 [16] was 2440 nM. The “fold change (FC)” value [17] was 0.35, the EC50 [18] was 1300 nM and the EC50 [19] was 1010 nM. For the same compound, the EC50 [20] was 740 nM, the “fold change (FC)” value [21] was 0.62 and the EC50 [22] was 2450 nM.

Source: ChEMBL document CHEMBL5321279 (J Med Chem, 2023)
